# Results published in patent US4382084A, “Antibiotics” (Beecham Group Limited, priority 1975, dated 1983).
# How the values were obtained:
# Acute toxicity in mice = conditions: mouse, in vivo
# [1] = system: Staphylococcus aureus Russell; assay: MIC test of synergy with ampicillin; type: cell-based; conditions: ampicillin administered separately, read-out: MIC of ampicillin alone (not inhibited by)
# Experimental: b. […] The following test results were obtained using a strain of Staphylococcus aureus Russell which is neither inhibited by 250 μg/ml of ampicillin nor inhibited by 5 μg/ml of synergist aministered separately.
# E. coli JT10 β-lactamase = assay: β-lactamase inhibition assay (Belgian Patent No. 827926); type: biochemical; conditions: enzyme of E. coli JT10
# Experimental: (§1) When the compound prepared by the method of Example 1 was tested against certain enzymes by the β-lactamase inhibition assay described in Belgian Patent No. 827926 the following ^I 50 values were obtained: […]
# E. coli JT4 β-lactamase = E. coli JT4 β-lactamase (Escherichia coli, UniProt P62593); assay: as above; type: biochemical; conditions: enzyme of E. coli JT4; read-out: Approximate I50 (converted)
# E. coli JT4 β-lactamase, sequence (P62593 24-286 limits assumed): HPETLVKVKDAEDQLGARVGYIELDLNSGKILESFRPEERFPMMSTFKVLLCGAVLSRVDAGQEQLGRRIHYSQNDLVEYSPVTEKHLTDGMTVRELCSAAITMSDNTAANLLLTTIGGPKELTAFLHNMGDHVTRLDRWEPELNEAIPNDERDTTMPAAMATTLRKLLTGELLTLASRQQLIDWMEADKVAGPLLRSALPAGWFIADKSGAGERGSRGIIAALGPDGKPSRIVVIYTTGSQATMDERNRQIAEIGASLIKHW
# Experimental: as §1
# [2] = molecular target: Staphylococcus aureus (Russell) β-lactamase (Staphylococcus aureus, UniProt P00807); assay: as above; type: biochemical; conditions: enzyme of Staphylococcus aureus (Russell); read-out: Approximate I50 (converted)
# Staphylococcus aureus (Russell) β-lactamase, sequence (P00807 25-281): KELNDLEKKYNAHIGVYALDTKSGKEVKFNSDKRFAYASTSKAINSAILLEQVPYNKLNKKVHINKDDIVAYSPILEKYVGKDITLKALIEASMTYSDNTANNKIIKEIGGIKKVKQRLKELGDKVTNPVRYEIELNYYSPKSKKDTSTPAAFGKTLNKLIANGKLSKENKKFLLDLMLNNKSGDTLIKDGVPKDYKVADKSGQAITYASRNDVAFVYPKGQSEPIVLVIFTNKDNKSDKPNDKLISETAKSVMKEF
# Experimental: as §1
# [3] = molecular target: Klebsiella aerogenes AE70 β-lactamase; assay: as above; type: biochemical; conditions: enzyme of Klebsiella aerogenes AE70
# Experimental: as §1
compound,measurement,setting,value
"CCCN(C/C=C1\O[C@@H]2CC(=O)N2[C@H]1C(=O)O)CCC [Example 12, 9-(N,N-dipropylamino)-9-deoxyclavulanio acid]",LD50,Acute toxicity in mice; oral route,> 500 mg/kg
same,LD50,"Acute toxicity in mice; sc, sub-cutaneous route",> 500 mg/kg
"C=CCN(CC=C)C/C=C1\O[C@@H]2CC(=O)N2[C@H]1C(=O)OCc1ccccc1 [Example 8, Benzyl diallylaminodeoxyclavulanate]",LD50,Acute toxicity in mice; oral route,> 500 mg/kg
same,LD50,"Acute toxicity in mice; sc, sub-cutaneous route",> 500 mg/kg
CC1(C)S[C@@H]2[C@H](NC(=O)[C@H](N)c3ccccc3)C(=O)N2[C@H]1C(=O)O [ampicillin],MIC,[1],> 250 µg/mL
O=C(OCc1ccccc1)[C@H]1/C(=C/CN(Cc2ccccc2)Cc2ccccc2)O[C@@H]2CC(=O)N21 [Example 1],Approximate I50,E. coli JT10 β-lactamase,0.24 mg/mL
same,IC50,E. coli JT4 β-lactamase,42.7 µM
same,IC50,[2],128 µM
same,Approximate I50,[3],0.40 mg/mL
